Results reported in PMC8605905 (Oxidative Medicine and Cellular Longevity, 2021).
Like-named read-outs stand apart in the source and are kept apart here.

Assays:
[1] = target: T1, Aβ and ΔK280 tauRD aggregates (Homo sapiens, UniProt P05067+P10636, DEL597-597); experiment: TEM examination of Aβ and tau aggregates; conditions: 10 μM
T1 construct: To investigate Aβ and ΔK280 tauRD aggregates
Description: To investigate Aβ and ΔK280 tauRD aggregates, samples of the fibrils formed with and without treatment of a tested compound were placed on a 200-mesh copper (holey-carbon) grid and visualized using a JEM-1230 transmission electron microscope (TEM) (JEOL, Tokyo, Japan) at an accelerating voltage of 100 kV.

[2] = system: ∆K280 tauRD-DsRed SH-SY5Y cells; experiment: High content analysis of ΔK280 tauRD-DsRed fluorescence; format: cell-based, Human; conditions: tested 2.5–10 μM
Method: Human 293-derived Flp-In-293 cells (Invitrogen, Madison, WI, USA) were cultivated in Dulbecco's modified Eagle's medium (DMEM) containing 10% foetal bovine serum (FBS) (Thermo Fisher Scientific). Human neuroblastoma SH-SY5Y-derived Aβ-GFP [23] and ∆K280 tauRD-DsRed cells were kept in DMEM/nutrient mixture F12 (DMEM/F12) containing 10% FBS, 5 μg/ml blasticidin, and 100 μg/ml hygromycin (InvivoGen, San Diego, CA, USA). Doxycycline (Sigma-Aldrich) was applied to induce the expression of Aβ-GFP (5 μg/ml doxycycline) or ∆K280 tauRD-DsRed (2 μg/ml doxycycline).
On day 1, Aβ-GFP or ∆K280 tauRD-DsRed SH-SY5Y cells were seeded into 96-well plates (2.5 × 10^4/well) and treated with retinoic acid (10 μM; Sigma-Aldrich) to prompt neuronal differentiation. […] On day 8, cells were stained with Hoechst 33342 (0.1 μg/ml; Sigma-Aldrich) for 30 min, and cell images were automatically captured at excitation/emission wavelengths of 482/[…] (GFP fluorescence) or 543/593 nm (DsRed fluorescence) using a high content analysis (HCA) system (Micro Confocal High-Content Imaging System). Image Acquisition and Analysis Software (MetaXpress) (Molecular Devices, Sunnyvale, CA, USA) was used to analyse the images. CellROX Orange (5 μM; Molecular Probes, Eugene, OR, USA) (for Aβ-GFP cells) or dichloro-dihydro-fluorescein diacetate (DCFH-DA, 10 μM; Invitrogen) (for ∆K280 tauRD-DsRed cells) was added to the cells and incubated at 37°C for 30 min. The HCA system was used to measure intracellular ROS at 531/593 nm (CellROX Orange fluorescence) or 482/536 nm (DCFH-DA fluorescence) of excitation/emission wavelengths.

[3] = Mouse pharmacokinetics study and brain/plasma ratio; format: in vivo, Male Crl:CD-1 (ICR) mice; conditions: for half-life: read-out: t1/2 (elimination half-life) (converted); for AUC(0-inf): iv, 5 mg/kg
Method: Male Crl:CD-1 (ICR) mice (8 weeks old) weighing 25–30 g were housed in cages with ad libitum access to food and drinking water on a 12 : 12 h light-dark cycle. All animal experiments were performed in accordance with the guidelines approved by the Rosetta Pharmamate Institutional Animal Care and Use Committee (IACUC Approval No: AF20015). Mice were randomly divided into 7 subgroups (6 time points and 1 vehicle control; n = 3 per subgroup). LM-021 (in 5% DMSO and 19% hydroxypropyl-β-cyclodextrin) was administered intravenously (IV) at 5 mg/kg dose in volume of 10 ml/kg. Mice were euthanized in a CO2 chamber at 0.25, 0.5, 1, 2, 4, or 8 h postdose. Whole blood was collected via facial veins in heparin-coated polypropylene tubes, and plasma was obtained by centrifugation (1000 × g for 15 min at 4°C) within 60 min of collection. After cerebral vasculature perfusion through the left ventricle with normal saline for 5 min, the whole brain was quickly excised and weighed. Plasma and brain samples were rapidly frozen and stored at −70°C until analysis (see supplementary materials).
Pharmacokinetic (PK) parameters, including plasma concentration following IV dose (C0), elimination half-life (T1/2), mean residence time (MRT), and area under the concentration- (AUC-) time curve from time 0 extrapolated to infinity (AUC(0-∞)), were estimated using noncompartmental pharmacokinetic parameter analysis with Phoenix WinNonlin software (version 8.2, Pharsight Corporation, Mountain View, CA, USA). In addition, the ratio of brain/plasma was calculated from the area under the curve for brain and plasma concentrations.
Supplementary Description
Preparation and analysis of mouse plasma and brain homogenate samples. A solvent-based protein precipitation procedure was used for analyzing plasma and brain homogenate samples. A 20-μl aliquot of each plasma sample was mixed with 60 μl of acetonitrile. For brain samples, collected brains were homogenized in 3 volumes of methanol, and then 50 μl of brain homogenate was mixed with 50 μl of acetonitrile.
After vortexing and centrifugation (20,000 × g for 5 min), the extracted supernatants were collected. Liquid chromatography – tandem mass spectrometry (LC-MS/MS) analyses was performed using an Agilent 1200 (Agilent Technologies, Palo Alto, CA, USA) coupled to a QTrap 5500 triple-quadrupole mass spectrometer (AB SCIEX, Foster City, CA, USA). Chromatographic separation was performed on an Eclipse Plus C18 column (3.5 µm; 4.6 × 50 mm; Agilent Technologies) with the mobile phase performed at a constant flow rate of 1.0 ml/min using a binary solvent system: solvent A, 5 mM ammonium acetate; solvent B, acetonitrile. The transition (precursor ion to daughter ion) monitored was m/z 336.2 → 321.0 for LM-021. Multiple reaction monitoring (MRM) data were acquired, and the chromatograms were integrated using Analyst 1.6.3 software (Applied Biosystems). A weighted (1/x) linear regression was used to generate the calibration curves from standards and to calculate the sample […]
concentrations. […]

[4] = Crl:CD-1 (ICR), mouse, plasma, ICR male mice, IV 5 mg/kg

With `CN(C)c1ccc(/C=C/C(=O)c2c(O)c3ccccc3oc2=O)cc1` [LM-021, (E)-3-(3-(4-(dimethylamino)phenyl)acryloyl)-4-hydroxy-2H-chromen-2-one] the “Aβ and tau aggregate structures by TEM” value [1] was “reduced amyloid aggregates”, the EC50 ([2]; Homo sapiens, ∆K280 tauRD-DsRed SH-SY5Y cells, read-out: Extrapolated EC50 in inhibiting ∆K280 tauRD aggregation (DsRed fluorescence)) was 10 µM and the “Concentration significantly elevating DsRed fluorescence intensity” value ([2]; day 8) was 5 to 10 µM. For the same compound, the half-life ([3]; Crl:CD-1 (ICR), mouse, brain, ICR male mice, IV 5 mg/kg) was 2.17 ± 0.67 h, the C0 [3, 4] was 20400 ± 9480 ng/mL and the MRT [3, 4] was 3.54 ± 0.93 h. For the same compound, the clearance [3, 4] was 1.85 ± 0.12 mL/min/kg, the Vd ([3]; Crl:CD-1 (ICR), mouse, plasma, ICR male mice, IV 5 mg/kg, read-out: Vss) was 0.39 ± 0.08 L/kg and the half-life [3, 4] was 2.54 ± 0.79 h. The Brain/plasma ratio ([3]; calculated by the AUC(0-∞) ratios, ICR male mice, IV 5 mg/kg) was 0.053, the Kp ([3]; male, Crl:CD-1 (ICR), mouse, brain and plasma, mice, IV 5 mg/kg) was 0.053 and the AUC(0-inf) ([3]; male, Crl:CD-1 (ICR), mouse, brain, brain (tissue density assumed 1 g/ml), ICR male mice, IV 5 mg/kg, read-out: AUC(0-∞)) was 2380 ± 34 ng·h/mL. The AUC(0-inf) ([3]; male, Crl:CD-1 (ICR), mouse, brain, brain, mice, intravenous bolus 5 mg/kg, read-out: Systemic exposure (AUC0-∞)) was 2380 ± 30 ng·h/mL, the AUC(0-inf) ([3]; male, Crl:CD-1 (ICR), mouse, plasma, plasma, ICR male mice, IV 5 mg/kg, read-out: AUC(0-∞)) was 45300 ± 2830 ng·h/mL and the AUC(0-inf) ([3]; male, Crl:CD-1 (ICR), mouse, plasma, plasma, mice, intravenous bolus 5 mg/kg, read-out: Systemic exposure (AUC0-∞)) was 45300 ± 2830 ng·h/mL. The “Plasma clearance as share of cardiac output blood flow of mice (400 ml/min/kg)” value ([3]; mice, IV 5 mg/kg) was “about 0.5%”.
